Broadly, the AUC is the area under the concentration-time curve, a measure of exposure. Low values mean less exposure, high ones more exposure.

The source of these data is patent US8541471B2, “Water-soluble strontium salts for use in treatment of cartilage and/or bone conditions” (Osteologix A/S, priority 2003, dated 2013).

Like-named read-outs stand apart in the source and are kept apart here.

Test in data set [1]: not given
The source holds these as a separate data set.

The target of data set [2] is T1, calcium-sensing receptor (CaR) (Homo sapiens, UniProt P41180).
T1 sequence (P41180 20-1078): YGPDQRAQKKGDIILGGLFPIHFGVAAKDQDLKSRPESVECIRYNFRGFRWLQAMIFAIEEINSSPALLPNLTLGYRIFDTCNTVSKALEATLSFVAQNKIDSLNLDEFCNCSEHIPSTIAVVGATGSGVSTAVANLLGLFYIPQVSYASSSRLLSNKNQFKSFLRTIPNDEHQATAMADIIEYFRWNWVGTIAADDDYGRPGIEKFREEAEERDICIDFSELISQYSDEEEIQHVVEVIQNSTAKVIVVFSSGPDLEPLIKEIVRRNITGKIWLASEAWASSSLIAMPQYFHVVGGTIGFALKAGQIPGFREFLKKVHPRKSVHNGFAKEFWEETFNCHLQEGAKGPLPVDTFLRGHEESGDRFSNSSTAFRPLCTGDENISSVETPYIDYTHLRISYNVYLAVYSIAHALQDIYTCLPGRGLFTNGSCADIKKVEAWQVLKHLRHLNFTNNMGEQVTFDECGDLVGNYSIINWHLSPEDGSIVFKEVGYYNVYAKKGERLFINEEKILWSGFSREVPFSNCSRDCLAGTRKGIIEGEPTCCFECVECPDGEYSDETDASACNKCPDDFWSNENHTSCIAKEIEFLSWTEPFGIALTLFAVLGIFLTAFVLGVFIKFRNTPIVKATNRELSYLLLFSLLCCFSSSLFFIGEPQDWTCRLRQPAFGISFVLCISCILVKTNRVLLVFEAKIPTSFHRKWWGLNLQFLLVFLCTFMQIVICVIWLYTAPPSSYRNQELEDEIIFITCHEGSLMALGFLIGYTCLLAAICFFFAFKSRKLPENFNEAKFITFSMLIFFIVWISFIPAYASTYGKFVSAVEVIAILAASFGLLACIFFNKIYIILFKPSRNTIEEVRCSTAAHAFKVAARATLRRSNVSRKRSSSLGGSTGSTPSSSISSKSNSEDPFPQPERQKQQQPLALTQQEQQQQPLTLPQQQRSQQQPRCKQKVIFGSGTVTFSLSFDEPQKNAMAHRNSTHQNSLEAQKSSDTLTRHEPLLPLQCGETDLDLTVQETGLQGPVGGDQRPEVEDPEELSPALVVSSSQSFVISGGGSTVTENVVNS
As to conditions: studies have shown; cited from earlier work.

As for `O=C([O-])/C=C/C(=O)[O-].[Sr+2]` [Fumerate, strontium fumarate], the “SOLUBILITY AT 40° C. pH 7.5” value was 977 mg/L and the “SOLUBILITY AT ROOM TEMPERATURE (22-24° C.) pH 7.5” value (“SOLUBILITY AT ROOM TEMPERATURE” below) turned out to be 1215 mg/L. On to “strontium alpha-ketoglutarate [α-ketogluterate]”, for which the “rate of metabolism (second peak of model fit)” value in data set [1] (rats, FIGS. 9A-B) was “quickly metabolized”. Turning to `[Cl-].[Cl-].[Sr+2]` [Chloride, strontium chloride, reference compound], the AUC in data set [1] (rat, in vivo, po) worked out at 7300 mg·min/L. The “time to maximum serum strontium concentration” value in data set [1] (rats, single oral gavage) is listed as “approximately 2 hours”. For the compound `O=C([O-])/C=C\C(=O)[O-].[Sr+2]` [Maleate, strontium maleate], the “SOLUBILITY AT 40° C. pH 7.5” value worked out at 1457 mg/L and the “SOLUBILITY AT ROOM TEMPERATURE” value amounted to 1680 mg/L.

In the case of `[Sr+2]` [strontium], the “activity at the calcium-sensing receptor (CaR)” value in data set [2] is on record as “full agonist”.

`N[C@@H](CCC(=O)[O-])C(=O)[O-].O.O.O.O.O.O.[Sr+2]` [L-glutamate, strontium glutamate hexahydrate]: the area under the curve (AUC) in data set [1] (female, Wistar HanTac:WH (GALAS), rat, in vivo, po) amounted to 10100 mg·min/L. The “rate of metabolism (second peak of model fit)” value in data set [1] (rat, in vivo) is “rests longer in the serum”. As to `N#Cc1c(N(CC(=O)[O-])CC(=O)[O-])sc(C(=O)[O-])c1CC(=O)[O-].[Sr+2].[Sr+2]` [Ranelate, distrontium salt of 2-[N,N-di(carboxymethyl)amino]-3-cyano-4-carboxymethylthiophene-5-carboxylic acid, reference compound], the “SOLUBILITY AT 40° C. pH 7.5” value came out at 1970 mg/L and the “SOLUBILITY AT ROOM TEMPERATURE” value was 890 mg/L. For the same compound, the “time to maximum serum strontium concentration” value in data set [1] (rat, in vivo, po) is reported as “approximately 2 hours”.
